# Measured values taken from patent publication US20230242526A1 (Zentaur Therapeutics International Limited, priority 2020, published 2023).
# Key:
# [1] = test system: human ovarian carcinoma OVCAR3 cell line; test: CyQUANT Direct cell proliferation assay, OVCAR-3; type: cell-based; conditions: OVCAR-3, 168 h, 7 days
# Excerpt: (§1) The human ovarian carcinoma OVCAR3 cell line (ATCC HTB-161™) or human breast squamous HCC1806 cell line (ATCC CRL 2335) were obtained from American Type Culture Collection (ATCC), and maintained in culture media according to the supplier's specification.
# (§2) The CyQUANT® Direct Cell Proliferation Assay Kit (Invitrogen™, catalog No. G35012) was utilized to test the inhibitory activities of the CDK2 inhibitors described in this disclosure against OVCAR3 or HCC1806 tumor cells.
# (§3) CyQUANT® Direct Cell Proliferation Assay: The spent medium from the purchased tumor cell culture plate was removed and the tumor cells were washed with PBS buffer twice. Trypsin (VWR catalog No. 0458-25G) was added to digest the tumor cells until tumor cells appeared round shaped and to dissociate adherent cells from the plate wall in which they are being cultured. Then RPMI-1640 media (HCC1806, Gibco™ catalog No, A10491-01) with 10% fetal bovine serum (FBS) (Hyclone™ catalog No. SV30160.03), or RPMI-1640 media (OVCAR-3, Gibco™ catalog No. 10370-021) with 20% FBS and 0.01 mg/mL insulin was added to stop the trypsin digestion reaction. The tumor cells were lightly agitated with a liquid transfer pipette to cause tumor cells suspended in the culture media. The cells were counted. The complete medium was used to prepare tumor cell suspension.
# (§4) OVCAR3 or HCC1806 cells were seeded at 40 μL/well in 384-well plates in growth media containing FBS and cultured 24 hours in the incubator at 37° C., 5% CO2. […] Compound solutions were added by Agilent Bravo liquid handler. […] The control wells contained the growth medium having 0.1% DMSO. Cells were incubated at 37° C., 5% CO2 for 7 days.
# (§5) CYQUANT Direct Cell Proliferation Assay (Molecular Probes, Eugene, Oreg.) was then performed following manufacturer's instructions to prepare the detection reagents. 50 μL of detection reagent was aliquot and added to each well and the cells were incubated at 37° C. for 1 hr.
# (§6) The cell culture plates were placed on TECAN M1000 microplate reader to detect the fluorescence intensity at 508 nm excitation and 527 nm emission wavelengths. Graphpad Prism 6.0 software was used for data processing, preparing cell growth curve, calculating percentage inhibition on cell growth. IC50 values were calculated by concentration-response curve fitting utilizing a four-parameter analytical method using GraphPad Prism software.
# [2] = test system: human breast squamous HCC1806 cell line; test: CyQUANT Direct cell proliferation assay, HCC1806; type: cell-based; conditions: HCC1806, 168 h, 7 days
# Excerpt: as §1, §2, §3, §4, §5, §6
# [3] = in vitro; conditions: microsomes
# Experimental: (§7) Human liver microsomes (cat. No. 452161), mouse liver microsomes (cat. No. 452701), were purchased from Corning.
# (§8) Samples were analyzed using LC-MS/MS using a SCIEX API 4000 mass spectrometer coupled with Agilent HPLC analytical system. After separation on a ZORBAX XDB-C18 column (5 μm, 50×2.1 mm, column No. 50-282) using an acetonitrile-water gradient system, peaks were analyzed by mass spectroscopy (MS) using ESI ionization in Q1 and Q3 scan mode.
# (§9) The LC and MS are all controlled by Analyst software.
# (§10) The liver microsomes were incubated with 1.0 μM of the testing compound at 37° C. The incubation mixture contained 100 mM PBS buffer (pH=7.4), 3 mM MgCl2 and 1 mM NADPH. The concentration of liver microsome in the incubation mixture was 0.5 mg/mL for testing compound, and 0.2 mg/mL for MDZ and the total volume is 0.2 mL. […] Aliquots were withdrawn at time points of 0 min, 5 min and 20 min for MDZ. The reactions were terminated by transferring the aliquots to a methanol solution containing the internal standard […] for analytical quantification. The quenched samples were analyzed by LC-MS/MS. The incubations were carried out in duplicates. The metabolic stability of the testing compounds by the liver microsomes of human and mice is expressed as elimination half-life (t1/2). The results are shown as the means of duplicate determinations±SD.
# [4] = biological target: CDK9/Cyclin T1 (Homo sapiens, UniProt P50750); test: CDK9/Cyclin T1 kinase assay; type: biochemical
# Chain of CDK9/Cyclin T1 (P50750 whole entry): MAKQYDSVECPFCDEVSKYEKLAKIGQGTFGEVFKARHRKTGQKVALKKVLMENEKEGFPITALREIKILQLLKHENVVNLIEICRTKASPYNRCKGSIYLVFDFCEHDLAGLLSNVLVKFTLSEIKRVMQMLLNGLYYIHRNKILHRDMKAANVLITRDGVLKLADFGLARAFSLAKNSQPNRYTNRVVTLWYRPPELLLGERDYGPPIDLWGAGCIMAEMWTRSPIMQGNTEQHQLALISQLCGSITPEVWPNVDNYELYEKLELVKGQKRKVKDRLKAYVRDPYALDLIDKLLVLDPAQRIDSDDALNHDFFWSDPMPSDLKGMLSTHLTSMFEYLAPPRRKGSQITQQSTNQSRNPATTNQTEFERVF
# Chain of CDK9/Cyclin T1 (O60563 whole entry partner): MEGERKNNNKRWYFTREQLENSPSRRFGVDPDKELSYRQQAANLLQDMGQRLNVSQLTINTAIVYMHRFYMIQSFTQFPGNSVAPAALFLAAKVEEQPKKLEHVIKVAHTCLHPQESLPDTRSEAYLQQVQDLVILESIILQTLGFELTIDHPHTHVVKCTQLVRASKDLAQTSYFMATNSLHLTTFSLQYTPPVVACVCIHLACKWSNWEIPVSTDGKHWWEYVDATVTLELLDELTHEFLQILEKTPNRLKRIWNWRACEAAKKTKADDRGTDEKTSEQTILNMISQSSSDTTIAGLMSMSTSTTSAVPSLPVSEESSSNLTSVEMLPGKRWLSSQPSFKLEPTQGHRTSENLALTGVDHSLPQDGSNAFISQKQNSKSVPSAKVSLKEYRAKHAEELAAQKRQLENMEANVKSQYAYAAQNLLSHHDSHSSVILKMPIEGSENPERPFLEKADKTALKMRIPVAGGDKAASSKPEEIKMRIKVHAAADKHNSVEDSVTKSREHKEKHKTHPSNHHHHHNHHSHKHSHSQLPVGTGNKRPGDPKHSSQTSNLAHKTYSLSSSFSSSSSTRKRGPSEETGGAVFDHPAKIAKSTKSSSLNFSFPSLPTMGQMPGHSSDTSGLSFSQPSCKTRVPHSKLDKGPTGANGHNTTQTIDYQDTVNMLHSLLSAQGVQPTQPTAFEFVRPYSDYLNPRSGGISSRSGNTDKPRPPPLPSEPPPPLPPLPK
# Experimental: (1). Recombinant enzymes CDK1, CDK2, CDK4, CDK6, CDK9, cyclin B1, cyclin A2, cyclin D3, cyclin E1, cyclin T1 were cloned and purified at Wuxi Biortus Biochemistry Co. Ltd.
# (8) Peptide substrate-CDK9 (Ahx-GSRTPMY-NH2, Scilight-Peptide, Cat. C0769102).
# The test compounds were dissolved and diluted in DMSO. A stock DMSO solution of the test compound of the invention was prepared by dissolving the compound in DMSO to form a 10 mM solution.
# 2 μL of testing compound solutions and 5 μL of enzyme solution were added into the 384-well microplate followed by a 10 minute incubation. The reaction was then initiated by the addition of 5 μL of peptide substrate and ATP mixture solution and incubated at 27° C. for 30 minutes. The enzyme reaction in each well was terminated by adding 4 μL of 120 mM EDTA solution. Each assay was carried out in duplicates.
# DMSO was used as negative control (0%) for enzyme activity. 20 μM Staurosporine was used as positive control (100%) for enzyme activity.
# Plates were read for fluorescence on a Caliper EZ Reader II by separating the fluorescent labeled substrate from the enzyme phosphorylation product by electrophoresis. Data were collected and analyzed using GraphPad Prism version 6.0 software.
# Dose-response curves were plotted from inhibition data generated, each in duplicate, from 10 point serial dilutions of inhibitory compounds. Concentration of compound was plotted against % kinase activity. To generate IC50 values, the dose-response curves were then fitted to a standard sigmoidal curve and IC50 values were derived by nonlinear regression analysis.
# [5] = in vitro; conditions: microsomes; remark: listed apart in the source
# Experimental: as §7, §8, §9, §10
Structure (SMILES),IC50 [1] [nM],IC50 [2] [nM],"half-life at 1 μM ([3]; human, pH 7.4, t1/2 human) [min]",IC50 [4] [nM],"half-life at 1 μM ([5]; mouse, pH 7.4, t1/2 mouse) [min]",half-life at 1 μM ([3]; pH 7.4) [min],half-life at 1 μM ([5]; pH 7.4) [min]
"C[C@@]1(O)CCC[C@H]1n1c(=O)ccc2cnc(NC3CCN(S(C)(=O)=O)CC3)nc21 (racemic) [Comp. 1, (±)-8-(2-hydroxy-2-methylcyclopentyl)-2-((1-(methylsulfonyl)piperidin-4-yl)amino)pyrido[2,3-d]pyrimidin-7(8H)-one, reference compound]",54.3,86.5,–,–,–,–,–
"C[C@@]1(O)CCC[C@H]1n1c(=O)ccc2cnc(NC3CCN(S(C)(=O)=O)CC3)nc21 [Comp. 6, (−)-8-(2-hydroxy-2-methylcyclopentyl)-2-((1-(methylsulfonyl)piperidin-4-yl)amino)pyrido[2,3-d]pyrimidin-7(8H)-one, reference compound]",39.2,56.1,693,6450,24.2,–,–
"[2H]C1(Nc2ncc3ccc(=O)n([C@@H]4CCC[C@@]4(C)O)c3n2)CCN(S(C)(=O)=O)CC1 [Comp. 47, (−)-8-((1R,2R)-2-hydroxy-2-methylcyclopentyl)-2-((1-(methylsulfonyl)piperidin-4-yl-4-d)amino)pyrido[2,3-d]pyrimidin-7(8H)-one]",–,–,990,–,24.5,–,–
"[2H]C1([2H])CN(S(C)(=O)=O)CC([2H])([2H])C1Nc1ncc2ccc(=O)n([C@@H]3CCC[C@@]3(C)O)c2n1 [Comp. 61, (−)-8-((1R,2R)-2-hydroxy-2-methylcyclopentyl)-2-((1-(methylsulfonyl)piperidin-4-yl-3,3,5,5-d4)amino)pyrido[2,3-d]pyrimidin-7(8H)-one]",–,69.2,578,–,23.5,–,–
"[2H]C([2H])([2H])c1cc2cnc(NC3CCN(S(C)(=O)=O)CC3)nc2n(C2CCCC2(C)O)c1=O (racemic) [Comp. 11, (±)-8-(2-hydroxy-2-methylcyclopentyl)-6-(methyl-d3)-2-((1-(methylsulfonyl)piperidin-4-yl)amino)pyrido[2,3-d]pyrimidin-7(8H)-one]",21.3,28.6,–,–,–,–,–
"Cc1ncc2n1-c1ccc(Cl)cc1C(c1ccccc1F)=NC2 [Midazolam, reference compound]",–,–,–,–,–,16.3,4.59
CCN1CCN(Cc2ccc(Nc3ncc(F)c(-c4cc(F)c5nc(C)n(C(C)C)c5c4)n3)nc2)CC1 [LY2835219],4370,161,–,–,–,–,–
"Cc1cc2cnc(NC3CCN(S(C)(=O)=O)CC3)nc2n([C@@H]2CCC[C@@]2(C)O)c1=O (racemic) [Comp. 3, (±)-8-(2-hydroxy-2-methylcyclopentyl)-6-methyl-2-((1-(methylsulfonyl)piperidin-4-yl)amino)pyrido[2,3-d]pyrimidin-7(8H)-one, reference compound]",38.5,53.4,–,–,–,–,–
"[2H]C(F)(F)c1cc2cnc(NC3CCN(S(C)(=O)=O)CC3)nc2n(C2CCCC2(C)O)c1=O (racemic) [Comp. 20, (±)-6-(difluoromethyl-d)-8-(2-hydroxy-2-methylcyclopentyl)-2-((1-(methylsulfonyl)piperidin-4-yl)amino)pyrido[2,3-d]pyrimidin-7(8H)-one]",104,125,–,6000,–,–,–
